Test results as given in patent publication US20240417435A1, “DEFENSIN-DERIVED PEPTIDE WITH ANTIBACTERIAL ACTIVITY ALSO AGAINST MULTI-ANTIBIOTIC-RESISTANT BACTERIA” (priority 2021, published 2024).
Values after ≈ are worked out from the molar mass of the structure shown. Where a SMILES comes first, the peptide text is derived from it.

Tests used:
[1] = tested on: P. aeruginosa MDR strain 1; assay type: cell-based, Pseudomonas aeruginosa
Procedure: (§1) The antimicrobial activity of peptide γ2 was evaluated versus Pseudomonas aeruginosa ATCC 27853, Escherichia coli ATCC 13762 and Staphylococcus aureus ATCC 6538, and versus multidrug-resistant (MDR) clinical isolates of Methicillin-Resistant Staphylococcus aureus (MRSA), extended-spectrum β-lactamase (ESBL)-producing E. coli, P. aeruginosa and Acinetobacter baumannii complex. The isolates were identified by mass spectrometry using the MALDI (matrix-assisted laser desorption/ionisation) mass spectrometer and the biochemical phenotyping method in a VITEKR 2 bioMérieux system (bioMérieux Italia S.p.a., Bagno a Ripoli, Florence, Italy), according to the manufacturer's instructions. The antibiotic susceptibility profile was evaluated with the VITEKR 2 bioMérieux System. The microorganisms were cultured in broth and agar at 37° C. The media used were BD Brain Heart Infusion broth (BHI) (BD, Franklin Lakes, NJ, USA) and BHI agar (OXOID, Basingstoke, Hampshire, UK), BD Trypticase Soy agar with 5% sheep's blood and MacConkey agar (OXOID, Basingstoke, Hampshire, UK). The isolates were stored frozen at −80° C. in BHI broth supplemented with 10% (v/v) glycerol (Carlo Erba Reagents, Milan, Italy) until use, and the work cultures were activated in the respective broths at 37° C. for 15-18 h.
(§2) Assays of the antibacterial activity of peptide γ2, in both reduced and oxidised form, were conducted against P. aeruginosa ATCC 27853, E. coli ATCC 13762, S. aureus ATCC 6538 and MDR clinical isolates. The strains were cultured under aerobic conditions in BHI broth at 37° C. and incubated with peptide γ2 for 2 hours at 37° C. Various concentrations of peptide were used, ranging from 1 μM to 128 μM. Each test was conducted in triplicate with three independent cultures. The minimum inhibitory concentration (MIC) and the minimum bactericidal concentration (MBC) of the peptide were determined with a modified version of the Clinical and Laboratory Standards Institute broth microdilution assay, using a final inoculum concentration of 10^5 CFU/ml, as previously described (Scudiero O et al., Antimicrob Agents Chemother 2010; 54:2312-22; Scudiero O et al. Antimicrob Ag Chemother 2013; 57:1701-8).
(§3) The MIC is indicated by the concentration interval, which comprise the upper growth limit and the first concentration which could not support visible bacterial growth after incubation. The MBC was defined as the lowest concentration at which no viable colonies were observed. The peptide concentrations were 128.0, 64.0, 32.0, 16.0, 8.0, 4.0, 2.0 and 1 μM. For the time-kill studies against the ATCC and MDR strains, the bacteria were cultured in BHI broth until the late log growth phase at 37° C. The bacterial suspensions, containing about 10^6 CFU/ml (adjusted by the spectrophotometer to OD600 nm), were diluted 1:100 in PBS1× and then incubated at 37° C. with or without the peptide, selected at concentrations corresponding to 1, 2 and 4×MIC (as determined above). At baseline and 1, 2, 3 and 5 hours after incubation, a portion of each sample was harvested, diluted in series in PBS1× and seeded on BHI agar. The plates were incubated for […] at 37° C., and the viable bacteria count was conducted by the CFU method. All the data were expressed as mean±SD of three independent experiments.

P. aeruginosa ATCC 27853 [2] = assay type: cell-based, Pseudomonas aeruginosa
Procedure: as §1, §2, §3

[3] = tested on: P. aeruginosa MDR strain 2; assay type: cell-based, Pseudomonas aeruginosa
Procedure: as §1, §2, §3

A. baumannii MDR 2 = assay: In vitro time-kill kinetics assay; assay type: cell-based, Acinetobacter baumannii complex
Procedure: as §3

MRSA strains = assay: In vitro time-kill kinetics assay; assay type: cell-based, Staphylococcus aureus; settings: all MRSA strains; peptide at MIC; after 2 hours' incubation, throughout observation period
Procedure: as §3

[4] = tested on: S. aureus ATCC 6538 (ATCC reference strain); assay: In vitro time-kill kinetics assay; assay type: cell-based, Staphylococcus aureus; settings: peptide at MIC, after 2 hours' incubation
Procedure: as §3

E. coli ATCC 13762 = assay type: cell-based, Escherichia coli
Procedure: as §1, §2, §3

E. coli ESBL strain 2 = assay type: cell-based, Escherichia coli
Procedure: as §1, §2, §3

E. coli ESBL strain 1 = assay type: cell-based, Escherichia coli
Procedure: as §1, §2, §3

[5] = tested on: E. coli ATCC 13762 (ATCC reference strain); assay: In vitro time-kill kinetics assay; assay type: cell-based, Escherichia coli; settings: peptide at MIC, after 2 hours' incubation
Procedure: as §3

ESBL strains of E. coli = assay: In vitro time-kill kinetics assay; assay type: cell-based, Escherichia coli; settings: peptide at MIC, after 2 hours' incubation, throughout observation period
Procedure: as §3

P. aeruginosa ATCC 27853 [6] = assay: In vitro time-kill kinetics assay; assay type: cell-based, Pseudomonas aeruginosa
Procedure: as §3

[7] = tested on: P. aeruginosa MDR 2 strain; assay: In vitro time-kill kinetics assay; assay type: cell-based, Pseudomonas aeruginosa
Procedure: as §3

[8] = tested on: A. baumannii MDR strain 2; assay type: cell-based, Acinetobacter baumannii complex
Procedure: as §1, §2, §3

[9] = tested on: A. baumannii MDR strain 1; assay type: cell-based, Acinetobacter baumannii complex
Procedure: as §1, §2, §3

S. aureus ATCC 6538 = assay type: cell-based, Staphylococcus aureus
Procedure: as §1, §2, §3

MRSA strain 1 = assay type: cell-based, Staphylococcus aureus
Procedure: as §1, §2, §3

MRSA strain 2 = assay type: cell-based, Staphylococcus aureus
Procedure: as §1, §2, §3

MRSA strain 3 = assay type: cell-based, Staphylococcus aureus
Procedure: as §1, §2, §3

CC[C@H](C)[C@H](NC(=O)[C@H](CCC(N)=O)NC(=O)[C@H](CCCNC(=N)N)NC(=O)[C@H](CCCNC(=N)N)NC(=O)[C@H](CCCCN)NC(=O)[C@@H]1CCCN1C(=O)[C@H](CC(C)C)NC(=O)[C@H](CS)NC(C)=O)C(=O)NCC(=O)N[C@@H](CCCCN)C(=O)N[C@@H](CO)C(=O)N[C@@H](CO)C(=O)N[C@H](C(=O)N[C@@H](CCCNC(=N)N)C(=O)NCC(=O)N[C@@H](CCCNC(=N)N)C(=O)N[C@@H](CCCCN)C(=O)N[C@@H](CO)C(=O)N[C@@H](CS)C(=O)N[C@@H](CCCCN)C(=O)N[C@@H](CCCCN)C(N)=O)[C@@H](C)O [Reduced peptide γ2] (Ac-CLPKRRQIGKSSTRGRKSCKK-NH2) was tested, and the MBC [1] was 64 µM (≈ 157 µg/mL), the MBC (P. aeruginosa ATCC 27853 [2]) was 1 µM (≈ 2.46 µg/mL) and the MBC [3] was 1 µM (≈ 2.46 µg/mL). The MIC [3] was 1 µM (≈ 2.46 µg/mL), the “growth and viability in time-kill assay” value (A. baumannii MDR 2; after 2 hours' treatment) was “great reduction in growth and viability” and the “growth and viability in time-kill assay” value (A. baumannii MDR 2; longer observation times, even at 4×MIC) was “slight recovery of growth and viability”. The “growth in time-kill assay” value (MRSA strains) was “total reduction in growth”, the “growth in time-kill assay” value [4] was “total reduction in growth” and the MBC (E. coli ATCC 13762) was 2 µM (≈ 4.92 µg/mL). The MIC (E. coli ATCC 13762) was 2 µM (≈ 4.92 µg/mL), the MBC (E. coli ESBL strain 2) was 16 µM (≈ 39.3 µg/mL) and the MIC (E. coli ESBL strain 2) was 2 µM (≈ 4.92 µg/mL). For the same molecule, the MBC (E. coli ESBL strain 1) was 2 µM (≈ 4.92 µg/mL), the MIC (E. coli ESBL strain 1) was 2 µM (≈ 4.92 µg/mL) and the “growth in time-kill assay” value [5] was “total reduction in growth”. The “growth in time-kill assay” value (ESBL strains of E. coli) was “total reduction in growth”, the “growth in time-kill assay” value (P. aeruginosa ATCC 27853 [6]; peptide at 2×MIC) was “no growth” and the “growth and viability in time-kill assay” value (P. aeruginosa ATCC 27853 [6]; peptide at MIC only) was “initial reduction in growth and viability in the first few hours of observation, whereas at longer times (5 and 7 h) a slight resumption in growth and viability”. For the same molecule, the “growth in time-kill assay” value ([7]; peptide at 2×MIC) was “no growth”, the “growth and viability in time-kill assay” value ([7]; peptide at MIC only) was “initial reduction in growth and viability in the first few hours of observation, whereas at longer times (5 and 7 h) a slight resumption in growth and viability” and the MIC ([8]; A. baumannii MDR strain 2) was 1 µM (≈ 2.46 µg/mL). The MBC ([8]; MDR strain 2) was 1 µM (≈ 2.46 µg/mL), the MBC [9] was 64 µM (≈ 157 µg/mL) and the MBC (S. aureus ATCC 6538) was 1 to 2 µM. For the same molecule, the MBC (MRSA strain 1) was 1 µM (≈ 2.46 µg/mL), the MIC (MRSA strain 1) was 1 µM (≈ 2.46 µg/mL) and the MBC (MRSA strain 2) was 16 µM (≈ 39.3 µg/mL). It also gave an MIC (MRSA strain 2) of 4 to 8 µM, an MBC (MRSA strain 3) of 4 µM (≈ 9.84 µg/mL) and an MIC (MRSA strain 3) of 1 µM (≈ 2.46 µg/mL).
